Here are results for 29 compounds from patent publication US9221809B2 (MERCK SHARP & DOHME CORP., priority 2011, dated 2015).

This assay has as its target IRAK4 (Homo sapiens (Human), UniProt Q9NWZ3). Briefly: IRAK4 kinase activity, IMAP fluorescence polarization assay. To be noted: 100 μM ATP. Type of assay: biochemical. Put shortly: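 Fluorescence polarization (IMAP nanoparticle binding of phosphopeptide) reports activity after a 30 min, 25 °C reaction. Conditions: 100 μM ATP, 0.5 nM GST-IRAK4, 100 nM fluorescent peptide, 10 mM Tris pH 7.2, 1 mM MgCl2, 1 mM DTT, 0.01% Tween 20.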

Where [1] appears, read: 0.5 nM GST tagged IRAK4, read-out: IRAK4 IC50.

Molecules are shown by their SMILES. Structures can show the parent of a compound that is named as a salt. Where two headings read alike, the source gives them in different places.

IRAK4, sequence (Q9NWZ3 whole entry): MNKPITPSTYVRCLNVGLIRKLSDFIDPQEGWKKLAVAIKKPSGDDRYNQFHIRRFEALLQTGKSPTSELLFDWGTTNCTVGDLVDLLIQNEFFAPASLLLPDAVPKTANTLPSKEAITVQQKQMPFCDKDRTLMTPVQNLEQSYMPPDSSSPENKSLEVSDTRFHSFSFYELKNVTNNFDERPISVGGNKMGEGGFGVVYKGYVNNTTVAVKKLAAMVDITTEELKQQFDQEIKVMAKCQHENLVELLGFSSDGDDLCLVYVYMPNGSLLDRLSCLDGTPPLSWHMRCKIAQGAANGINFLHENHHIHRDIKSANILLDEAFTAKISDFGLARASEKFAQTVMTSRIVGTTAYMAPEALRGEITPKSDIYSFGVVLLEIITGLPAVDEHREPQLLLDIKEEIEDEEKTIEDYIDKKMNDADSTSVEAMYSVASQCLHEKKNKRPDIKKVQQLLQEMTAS

With `O=c1[nH]c(NC2CNC2)nc(N[C@@H]2C[C@H](CO)[C@@H](O)[C@H]2O)c1-c1nc2ccccc2s1` [Example 36, 2-(Azetidin-3-ylamino)-5-(benzo[d]thiazol-2-yl)-6-(((1R,2S,3R,4R)-2,3-dihydroxy-4-(hydroxymethyl)cyclopentyl)amino)pyrimidin-4(3H)-one.HCl], the IC50 under setting [1] worked out at 656 nM.

As to `Cc1ccc2sc(-c3c(N[C@@H]4CCCNC4)nc(N4CCOCC4)[nH]c3=O)nc2c1` [Example 308, 5-(5-methyl-1,3-benzothiazol-2-yl)-2-(morpholin-4-yl)-6-[[(3R)-piperidin-3-yl]amino]-3,4-dihydropyrimidin-4-one; formic acid], the 50% inhibitory concentration (IC50) (read-out: IC50) stood at 120 nM. As to `O=c1[nH]c(NC2CCCCC2)nc(N[C@@H]2C[C@H](CO)[C@@H](O)[C@H]2O)c1-c1nc2ccccc2s1` [Example 6, 5-(Benzo[d]thiazol-2-yl)-2-(cyclohexylamino)-6-((1R,2S,3R,4R)-2,3-dihydroxy-4-(hydroxymethyl)cyclopentylamino)pyrimidin-4(3H)-one.HCl], the IC50 under setting [1] was determined as 636 nM. Turning to `CC1CCN(c2nc(N[C@@H]3CCCNC3)c(-c3nc4ccccc4s3)c(=O)[nH]2)CC1` [Example 297, 5-(1,3-benzothiazol-2-yl)-2-(4-methylpiperidin-1-yl)-6-[[(3R)-piperidin-3-yl]amino]-3,4-dihydropyrimidin-4-one], for the setting “read-out: IC50”, the IC50 stood at 69 nM. On the same count and under the same terms, to `O=c1[nH]c(NCCO)nc(N[C@@H]2CCCNC2)c1-c1nc2ccccc2s1` [Example 311, 5-(1,3-benzothiazol-2-yl)-2-[(2-hydroxyethyl)amino]-6-[[(3R)-piperidin-3-yl]amino]-3,4-dihydropyrimidin-4-one; trifluoroacetic acid] belongs 450 nM; to `N#Cc1cccc(-c2c(N[C@@H]3CCCNC3)nc(N3CCOCC3)[nH]c2=O)n1` [Example 221, (R)-6-(2-morpholino-6-oxo-4-(piperidin-3-ylamino)-1,6-dihydropyrimidin-5-yl)picolinonitrile], 167 nM. For `O=c1[nH]c(N2CCN(c3ccccn3)CC2)nc(N[C@@H]2CCCNC2)c1-c1nc2ccccc2s1` [Example 132, (R)-5-(benzo[d]thiazol-2-yl)-6-(piperidin-3-ylamino)-2-(4-(pyridin-2-yl)piperazin-1-yl)pyrimidin-4(3H)-one], where the note is “read-out: IRAK4 IC50”, the IC50 was 8 nM.

For `CN1CCC[C@@H](Nc2nc(N3CCOCC3)[nH]c(=O)c2-c2nc3ccccc3s2)C1` [Example 95, (R)-5-(Benzo[d]thiazol-2-yl)-6-(1-methylpiperidin-3-ylamino)-2-morpholinopyrimidin-4(3H)-one.HCl], the IC50 under setting [1] stood at 354 nM.

With `CN1CCC2CCN(c3nc(N[C@@H]4CCCNC4)c(-c4ccc5ccccc5n4)c(=O)[nH]3)C2C1` (stereo partly drawn) [Example 185, 2-(6-methyloctahydro-1H-pyrrolo[2,3-c]pyridin-1-yl)-6-((R)-piperidin-3-ylamino)-5-(quinolin-2-yl)pyrimidin-4(3H)-one], the IC50 (read-out: IRAK4 IC50) came out at 851 nM. On to `O=c1[nH]c(NC2COC2)nc(N[C@@H]2C[C@H](CO)[C@@H](O)[C@H]2O)c1-c1nc2ccccc2s1` [Example 11, 5-(Benzo[d]thiazol-2-yl)-6-((1R,2S,3R,4R)-2,3-dihydroxy-4-(hydroxymethyl)cyclopentylamino)-2-(oxetan-3-ylamino)pyrimidin-4(3H)-one.HCl], for which the half-inhibitory concentration (IC50) under setting [1] turned out to be 892 nM.

With `O=c1[nH]c(N2CCC(c3ccncc3)C2)nc(N[C@@H]2C[C@H](CO)[C@@H](O)[C@H]2O)c1-c1nc2ccccc2s1` (stereo partly drawn) [Example 76, 5-(benzo[d]thiazol-2-yl)-6-((1R,2S,3R,4R)-2,3-dihydroxy-4-(hydroxymethyl)cyclopentylamino)-2-(3-(pyridin-4-yl)pyrrolidin-1-yl)pyrimidin-4(3H)-one], the IC50 (unit inferred, read-out: IRAK4 IC50) turned out to be 30.9 nM. As for `O=c1[nH]c(N2CCN(c3cccc(Cl)n3)CC2)nc(N[C@@H]2CCCNC2)c1-c1nc2ccccc2s1` [Example 137, (R)-5-(benzo[d]thiazol-2-yl)-2-(4-(6-chloropyridin-2-yl)piperazin-1-yl)-6-(piperidin-3-ylamino)pyrimidin-4(3H)-one], where the note is “read-out: IRAK4 IC50”, the IC50 worked out at 25 nM. Regarding `O=c1[nH]c(N2CC[C@@H](CO)C2)nc(N[C@@H]2CCCNC2)c1-c1ccc2ccccc2n1` [Example 179, 2-((R)-3-(hydroxymethyl)pyrrolidin-1-yl)-6-((R)-piperidin-3-ylamino)-5-(quinolin-2-yl)pyrimidin-4(3H)-one], under “read-out: IRAK4 IC50”, the IC50 amounted to 13 nM.

On to `O=c1[nH]c(NC2CCC2)nc(N[C@@H]2C[C@H](CO)[C@@H](O)[C@H]2O)c1-c1ccc2ccccc2n1` [Example 20, 2-(Cyclobutylamino)-6-((1R,2S,3R,4R)-2,3-dihydroxy-4-(hydroxymethyl)cyclopentylamino)-5-(quinolin-2-yl)pyrimidin-4(3H)-one.HCl], for which the IC50 under setting [1] amounted to 19 nM.

With `O=c1[nH]c(N2CC3(COC3)C2)nc(N[C@@H]2CCCNC2)c1-c1nc2ccccc2s1` [Example 317, 5-(1,3-benzothiazol-2-yl)-2-[2-oxa-6-azaspiro[3.3]heptan-6-yl]-6-[[(3R)-piperidin-3-yl]amino]-3,4-dihydropyrimidin-4-one], the IC50 (read-out: IC50) worked out at 25 nM. As for `Cc1cnc(-c2c(N[C@@H]3CCCNC3)nc(N3CCOCC3)[nH]c2=O)s1` [Example 102, (R)-5-(5-methylthiazol-2-yl)-2-morpholino-6-(piperidin-3-ylamino)pyrimidin-4(3H)-one.HCl], the IC50 under setting [1] came out at 1270 nM. On to `O=c1[nH]c(C2CCN(c3ccccn3)CC2)nc(N[C@@H]2CCCNC2)c1-c1nc2ccccc2s1` [Example 242, (R)-5-(benzo[d]thiazol-2-yl)-6-(piperidin-3-ylamino)-2-(1-(pyridin-2-yl)piperidin-4-yl)pyrimidin-4(3H)-one], for which the IC50 under setting [1] was found to be 180 nM. `O=c1[nH]c(N2CCOCC2)nc(N[C@@H]2CCCNC2)c1-c1nc2cccc(Cl)c2s1` [Example 339, (R)-5-(7-chlorobenzo[d]thiazol-2-yl)-2-morpholino-6-(piperidin-3-ylamino)pyrimidin-4(3H)-one]: the IC50 under setting [1] is 180 nM. On the same count and under the same terms, in the case of `Cc1cccc(-c2c(N[C@@H]3C[C@H](CO)[C@@H](O)[C@H]3O)nc(N3CCCCC3)[nH]c2=O)n1` [Example 35, 6-(((1R,2S,3R,4R)-2,3-Dihydroxy-4-(hydroxymethyl)cyclopentyl)amino)-5-(6-methylpyridin-2-yl)-2-(piperidin-1-yl)pyrimidin-4(3H)-one.HCl] it was 296 nM; in that of `O=c1[nH]c(N2CCN(c3cccnc3)CC2)nc(N[C@@H]2CCCNC2)c1-c1nc(-c2ccc(F)cc2)cs1` [Example 349, 5-[4-(4-fluorophenyl)-1,3-thiazol-2-yl]-6-[[(3R)-piperidin-3-yl]amino]-2-[4-(pyridin-3-yl)piperazin-1-yl]-3,4-dihydropyrimidin-4-one], 20 nM. With `Cc1nonc1N1CCN(c2nc(N[C@@H]3CCCNC3)c(-c3nc4ccccc4s3)c(=O)[nH]2)CC1` [Example 139, (R)-5-(benzo[d]thiazol-2-yl)-2-(4-(4-methyl-1,2,5-oxadiazol-3-yl)piperazin-1-yl)-6-(piperidin-3-ylamino)pyrimidin-4(3H)-one], the IC50 (read-out: IRAK4 IC50) was determined as 15 nM. For `O=c1[nH]c(N2CCN(c3nncs3)CC2)nc(N[C@@H]2CCCNC2)c1-c1nc2ccccc2s1` [Example 163, (R)-2-(4-(1,3,4-thiadiazol-2-yl)piperazin-1-yl)-5-(benzo[d]thiazol-2-yl)-6-(piperidin-3-ylamino)pyrimidin-4(3H)-one], where the note is “read-out: IRAK4 IC50”, the IC50 stood at 20 nM. Turning to `O=c1[nH]c(OC2CCC2)nc(N[C@@H]2C[C@H](CO)[C@@H](O)[C@H]2O)c1-c1nc2ccccc2s1` [Example 15, 5-(Benzo[d]thiazol-2-yl)-2-cyclobutoxy-6-((1R,2S,3R,4R)-2,3-dihydroxy-4-(hydroxymethyl)cyclopentylamino)pyrimidin-4(3H)-one.HCl], the IC50 under setting [1] was 1690 nM.

Consider `O=c1[nH]c(N[C@H]2c3ccccc3C[C@@H]2O)nc(N[C@@H]2CCCNC2)c1-c1nc2ccccc2s1` [Example 291, 5-(benzo[d]thiazol-2-yl)-2-((1S,2S)-2-hydroxy-2,3-dihydro-1H-inden-1-ylamino)-6-((R)-piperidin-3-ylamino)pyrimidin-4(3H)-one], for which the IC50 (read-out: IC50) is 3000 nM. Turning to `Cc1csc(-c2c(N[C@@H]3C[C@H](CO)[C@@H](O)[C@H]3O)nc(N3CCC(C(F)(F)F)CC3)[nH]c2=O)n1` [Example 33, 6-(((1R,2S,3R,4R)-2,3-Dihydroxy-4-(hydroxymethyl)cyclopentyl)amino)-5-(4-methylthiazol-2-yl)-2-(4-(trifluoromethyl)piperidin-1-yl)pyrimidin-4(3H)-one.HCl], under setting [1], the IC50 was determined as 93.6 nM. As to `O=c1[nH]c(N2CCOCC2)nc(N[C@@H]2CCCNC2)c1-c1nc(-c2cccc(C(F)(F)F)c2)cs1` [Example 200], the IC50 (read-out: IRAK4 IC50) worked out at 141 nM.

With `O=c1[nH]c(N2CCOCC2)nc(NCCNCCO)c1-c1ccc2ccccc2n1` [Example 273, 6-([2-[(2-hydroxyethyl)amino]ethyl]amino)-2-(morpholin-4-yl)-5-(quinolin-2-yl)-3,4-dihydropyrimidin-4-one], under “read-out: IC50”, the IC50 was found to be 670 nM. As to `COc1cccc(N2CCN(c3nc(N[C@@H]4CCCNC4)c(-c4nc5ccccc5s4)c(=O)[nH]3)CC2)n1` [Example 143, (R)-5-(benzo[d]thiazol-2-yl)-2-(4-(6-methoxypyridin-2-yl)piperazin-1-yl)-6-(piperidin-3-ylamino)pyrimidin-4(3H)-one], the IC50 (read-out: IRAK4 IC50) was 10 nM. The same measure, in the same setting: in the case of `O=c1[nH]c(N2CCN(c3cnccn3)CC2)nc(N[C@@H]2CCCNC2)c1-c1nc2ccccc2s1` [Example 134, (R)-5-(benzo[d]thiazol-2-yl)-6-(piperidin-3-ylamino)-2-(4-(pyrazin-2-yl)piperazin-1-yl)pyrimidin-4(3H)-one] it was 8 nM.
